{"source": "paper PMC12363935", "about": "“Unc-51 Like Kinase 3 (ULK3) is essential for autophagy and cell survival in multiple myeloma” (Research Square, 2025)", "key": {"[1]": {"molecular_target": "T1, JAK2 (Homo sapiens, UniProt O60674)", "T1 construct": "purchased Reaction Biology Corporation", "T1 sequence (O60674 whole entry)": "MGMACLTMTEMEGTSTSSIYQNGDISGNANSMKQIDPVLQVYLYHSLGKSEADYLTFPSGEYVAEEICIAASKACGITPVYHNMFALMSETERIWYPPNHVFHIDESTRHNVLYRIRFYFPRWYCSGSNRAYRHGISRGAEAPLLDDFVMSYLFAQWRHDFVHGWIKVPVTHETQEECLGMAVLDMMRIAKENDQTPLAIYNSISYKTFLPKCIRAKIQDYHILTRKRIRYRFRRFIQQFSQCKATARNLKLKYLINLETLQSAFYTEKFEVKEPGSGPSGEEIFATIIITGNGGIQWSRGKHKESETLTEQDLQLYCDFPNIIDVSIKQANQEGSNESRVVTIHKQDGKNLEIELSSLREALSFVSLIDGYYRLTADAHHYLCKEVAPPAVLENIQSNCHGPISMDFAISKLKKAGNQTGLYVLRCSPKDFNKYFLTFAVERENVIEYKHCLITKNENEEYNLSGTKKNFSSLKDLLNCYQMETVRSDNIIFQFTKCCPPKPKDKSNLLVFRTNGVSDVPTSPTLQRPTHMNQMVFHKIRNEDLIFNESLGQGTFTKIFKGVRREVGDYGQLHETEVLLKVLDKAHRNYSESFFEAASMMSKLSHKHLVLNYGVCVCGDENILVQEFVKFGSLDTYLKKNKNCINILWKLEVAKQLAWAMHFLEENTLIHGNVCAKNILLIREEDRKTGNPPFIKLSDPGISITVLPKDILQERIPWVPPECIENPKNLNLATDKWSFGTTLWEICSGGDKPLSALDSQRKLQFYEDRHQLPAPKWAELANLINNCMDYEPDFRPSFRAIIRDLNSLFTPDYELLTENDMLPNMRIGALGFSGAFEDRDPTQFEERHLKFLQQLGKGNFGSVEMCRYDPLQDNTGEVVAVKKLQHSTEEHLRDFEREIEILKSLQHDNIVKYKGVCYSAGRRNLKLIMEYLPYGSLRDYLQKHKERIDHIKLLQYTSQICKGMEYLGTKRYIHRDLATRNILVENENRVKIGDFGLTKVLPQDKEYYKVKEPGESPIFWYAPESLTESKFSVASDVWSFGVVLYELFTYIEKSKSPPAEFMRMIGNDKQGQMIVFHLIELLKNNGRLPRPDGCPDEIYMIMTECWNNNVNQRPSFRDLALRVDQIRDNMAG", "assay": "Kinase profiling assay (Reaction Biology), 10-dose IC50, 10 μM ATP", "format": "biochemical", "conditions": "NA = no activity", "procedure": "310 and refinement were performed with COOT [14] and Phenix.Refine to obtain a clear electron\n311 density map (1Fo-Fc) for compound MA9-060, which was built into the structure near the end of\n312 iterative cycles of model building and refinement. Crystal parameters, data collection statistics and\n313 refinement statistics are summarized in Supplementary Fig. 4D and deposited in the protein\n314 databank with PDB code 8V1M.\n317 The compounds under investigation were tested by Reaction Biology Corporation against four\n318 specific kinases in this study (JAK2, ULK1, ULK2, ULK3). Each compound was provided as a\n319 10 mM stock solution. To facilitate dissolution, the compounds were subjected to gentle heating.\n320 Subsequent testing involved the evaluation of the compounds using a 10-dose IC50 mode,\nAdditionally, the control compound,\nThroughout these experiments, reactions were conducted using a standardized concentration\n325 The data collected during these assays encompass raw data, % enzyme activity (relative to DMSO\n327 activities at the highest concentration of compounds were less than 65%. The IC50 summary,\n328 detailing the inhibitory concentrations of the compounds against the respective kinases, is\n331 Bromodomain profiling assay\n333 evaluated against Bromodomain 1 by Reaction Biology Corporation.\n334 The compounds were subjected to testing using a 10-dose IC50 singlet approach, involving a 3-\n335 fold serial dilution starting at 10 μM, specifically against BRD4-1. Additionally, as a benchmark,\n337 dilution starting at 10 μM.\n338 For ligand and detection purposes, the H4/4Ac ligand, representing the Histone H4 peptide (1-21)\n339 with acetylation at lysine residues K5, K8, K12, and K16, and tagged with Biotin, was utilized."}, "[2]": {"tested_on": "NTC CTRL U266 MM cells", "assay": "NTC CTRL U266 in vivo model", "conditions": "10 mg/kg/day subcutaneously", "from_the_text": "Supplementary Figure 7. ULK3 ablation suppresses MM cell growth. A. Immunoblotting for ULK3 expression in parental, NTC CTRL and ULK3 KO U266 cells. Of note, NTC CTRL and ULK3 KO were used for the in vivo ULK3 KO model. Densitometric quantification values are annotated on the blot. B. Mice (n = 20/group) were tail vein injected […]\nwith 1 x106 NTC CTRL and ULK3 KO U266 MM cells. […]\nonset of the disease compared to NTC CTRL . (C) Representative confocal microscopy images of formalin fixed, paraffin embedded tumors (5-micron sections), stained for human mitochondria (hMITO) as a readout of MM cells colocalization. Alexa Fluor Plus 488 goat anti-mouse were used as secondary antibody. (D) MTS showing the inhibitory profile of MA9060 on NTC CTRL and ULK3 KO for U266 cell line. Treatment with MA9060 (0-100 uM) for 48h show reduced activity of MA9060 in ULK3 KO cell lines. E. Mice were divided respectively in two groups, vehicle control (n = 10, β-HCD Captisol) or MA9-060 (n = 10). Treatment started at day 20 (M-F, 10 mg/kg/day subcutaneously). MA9-060 treatment improves overall survival in the NTC CTRL arm (median 41 days post-tumor […]\n38 For MA9 therapy efficacy, mice were treated with vehicle (n=10) or MA9 (10 mg/kg/day, 39 subcutaneously, M-F from day 20; n=10) (Supplementary Fig. 7E, F). Survival and toxicity 40 (weight, clinical signs) was monitored. […]"}}, "data": [{"smiles": "Cc1cnc(Nc2ccc(C3CCN(C)CC3)c(F)c2)nc1Nc1ccc(Cl)c(NS(=O)(=O)C(C)(C)C)c1", "note": "[MA9060]", "values": [{"measurement": "IC50", "setting": "[1]", "value": 6.7, "unit": "nM"}, {"measurement": "toxicity (weight loss <20%, ruffled hair)", "setting": "[2]", "value": "did not show any signs of toxicity"}, {"measurement": "median overall survival", "setting": "[2]; NTC CTRL arm, M-F from day 20", "value": 41, "unit": "days"}]}]}
